Test system: 885512-296-R-J2-PDC complex spheroid growth, % test/control
Experiment: Anticancer human tumor 885512-296-R-J2-PDC patient-derived breast carcinoma cell line growth inhibition [AhR]
Conditions: for IC50: curve of first compound; for viability, T/C: stronger effect = lower value
Procedure, shortened: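 Agents were dosed in half-log steps down from roughly clinical Cmax, or from 10 microM where Cmax was unknown, alone and with AhR antagonists. Read-out: percent test/control growth of tumor spheroids containing HUVEC and MSC stromal cells.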

[1] = second compound 0.1 µM, first compound 0.0316 µM
[2] = second compound 0.1 µM, first compound 0.1 µM
[3] = second compound 0.1 µM, first compound 0.316 µM
[4] = second compound 0.1 µM, first compound 1 µM
[5] = second compound 0.1 µM, first compound 3.16 µM
[6] = second compound 0.1 µM, first compound 10 µM
[7] = second compound 0.316 µM, first compound 0.0316 µM
[8] = second compound 0.316 µM, first compound 0.1 µM
[9] = second compound 0.316 µM, first compound 0.316 µM
[10] = second compound 0.316 µM, first compound 1 µM
[11] = second compound 0.316 µM, first compound 3.16 µM
[12] = second compound 0.316 µM, first compound 10 µM
[13] = second compound 1 µM, first compound 0.0316 µM
[14] = second compound 1 µM, first compound 0.1 µM
[15] = second compound 1 µM, first compound 0.316 µM
[16] = second compound 1 µM, first compound 1 µM
[17] = second compound 1 µM, first compound 3.16 µM
[18] = second compound 1 µM, first compound 10 µM
[19] = second compound 3.16 µM, first compound 0.0316 µM
[20] = second compound 3.16 µM, first compound 0.1 µM
[21] = second compound 3.16 µM, first compound 0.316 µM
[22] = second compound 3.16 µM, first compound 1 µM
[23] = second compound 3.16 µM, first compound 3.16 µM
[24] = second compound 3.16 µM, first compound 10 µM
[25] = second compound 10 µM, first compound 0.0316 µM
[26] = second compound 10 µM, first compound 0.1 µM
[27] = second compound 10 µM, first compound 0.316 µM
[28] = second compound 10 µM, first compound 1 µM
[29] = second compound 10 µM, first compound 3.16 µM
[30] = second compound 10 µM, first compound 10 µM
[31] = second compound 0.1 µM, first compound 0.00316 µM
[32] = second compound 0.1 µM, first compound 0.01 µM
[33] = second compound 0.316 µM, first compound 0.00316 µM
[34] = second compound 0.316 µM, first compound 0.01 µM
[35] = second compound 1 µM, first compound 0.00316 µM
[36] = second compound 1 µM, first compound 0.01 µM
[37] = second compound 3.16 µM, first compound 0.00316 µM
[38] = second compound 3.16 µM, first compound 0.01 µM
[39] = second compound 10 µM, first compound 0.00316 µM
[40] = second compound 10 µM, first compound 0.01 µM
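Also: spheroids exposed to compounds for seven days.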

IC50 (second compound 0.1 µM) [µM]	IC50 (second compound 0.316 µM) [µM]	IC50 (second compound 1 µM) [µM]	IC50 (second compound 3.16 µM) [µM]	IC50 (second compound 10 µM) [µM]	SMILES	viability, T/C [1] [%]	viability, T/C [2] [%]	viability, T/C [3] [%]	viability, T/C [4] [%]	viability, T/C [7] [%]	viability, T/C [8] [%]	viability, T/C [9] [%]	viability, T/C [10] [%]	viability, T/C [13] [%]	viability, T/C [14] [%]	viability, T/C [15] [%]	viability, T/C [19] [%]	viability, T/C [20] [%]	viability, T/C [25] [%]	viability, T/C [26] [%]	other results
> 10	> 10	> 10	> 10	> 10	CC(C)c1c(-c2ccccc2)nc2c(C#N)c[nH]n2c1=O + CC(CO)NC(=O)c1cc(-c2ccc(Cl)cc2)nn(-c2cnn(C)c2)c1=O	110	101	97.6	98	105	101	104	102	105	96.4	107	108	104	109	91.2	viability, T/C [5]: 98.2%; viability, T/C [6]: 85.5%; viability, T/C [11]: 93.3%; viability, T/C [12]: 91.7%; viability, T/C [16]: 91.7%; viability, T/C [17]: 99.1%; viability, T/C [18]: 89.2%; viability, T/C [21]: 99.5%; viability, T/C [22]: 111%; viability, T/C [23]: 105%; viability, T/C [24]: 89.7%; viability, T/C [27]: 86.9%; viability, T/C [28]: 102%; viability, T/C [29]: 97.2%; viability, T/C [30]: 77%
> 10	9.46	> 10	> 10	4.76	COc1ccc([C@@H](O)c2cc(-c3ncnc4cc(N5CCOCC5)ccc34)c(F)cc2Cl)nn1 + CC(CO)NC(=O)c1cc(-c2ccc(Cl)cc2)nn(-c2cnn(C)c2)c1=O	85.7	97.2	91.2	90.7	94.1	92.1	82.8	86.3	103	112	95.6	89.6	92.1	88.1	83.6	viability, T/C [5]: 73.2%; viability, T/C [6]: 50.2%; viability, T/C [11]: 63.6%; viability, T/C [12]: 49.5%; viability, T/C [16]: 91.2%; viability, T/C [17]: 78%; viability, T/C [18]: 51.4%; viability, T/C [21]: 91.5%; viability, T/C [22]: 74.2%; viability, T/C [23]: 68.6%; viability, T/C [24]: 51.3%; viability, T/C [27]: 83.2%; viability, T/C [28]: 72.1%; viability, T/C [29]: 56.6%; viability, T/C [30]: 38.1%
0.00502	0.00548	0.00501	0.00459	0.00208	CC[C@@]1(O)C(=O)OCc2c1cc1n(c2=O)Cc2cc3c(CN(C)C)c(O)ccc3nc2-1 + Cc1ccccc1N=Nc1ccc(NC(=O)c2ccnn2C)c(C)c1	8.84	6.78			8.71	7.03			8.48	8.35		9.81	7.76	9.21	7.45	viability, T/C (second compound 0.1 µM, first compound 0.000316 µM): 109%; viability, T/C (second compound 0.1 µM, first compound 0.001 µM): 103%; viability, T/C [31]: 67.5%; viability, T/C [32]: 23.7%; viability, T/C (second compound 0.316 µM, first compound 0.000316 µM): 113%; viability, T/C (second compound 0.316 µM, first compound 0.001 µM): 113%; viability, T/C [33]: 74.7%; viability, T/C [34]: 23%; viability, T/C (second compound 1 µM, first compound 0.000316 µM): 117%; viability, T/C (second compound 1 µM, first compound 0.001 µM): 111%; viability, T/C [35]: 70.7%; viability, T/C [36]: 18.9%; viability, T/C (second compound 3.16 µM, first compound 0.000316 µM): 107%; viability, T/C (second compound 3.16 µM, first compound 0.001 µM): 95.4%; viability, T/C [37]: 61.1%; viability, T/C [38]: 26.5%; viability, T/C (second compound 10 µM, first compound 0.000316 µM): 54.6%; viability, T/C (second compound 10 µM, first compound 0.001 µM): 57.7%; viability, T/C [39]: 46.3%; viability, T/C [40]: 21.4%
0.404	0.415	0.423	0.29	0.186	COc1cc(C2c3cc4c(cc3C(OC3OC5COC(C)OC5C(O)C3O)C3COC(=O)C23)OCO4)cc(OC)c1O (stereo not given) + Cc1ccccc1N=Nc1ccc(NC(=O)c2ccnn2C)c(C)c1	101	115	59.6	19.2	120	107	60.2	17.9	96.2	102	60.8	81.4	71.5	57.4	63.5	viability, T/C [5]: 7.36%; viability, T/C [6]: 7.36%; viability, T/C [11]: 9.41%; viability, T/C [12]: 9.17%; viability, T/C [16]: 17.3%; viability, T/C [17]: 9.27%; viability, T/C [18]: 8.44%; viability, T/C [21]: 49.5%; viability, T/C [22]: 15.3%; viability, T/C [23]: 7.76%; viability, T/C [24]: 7.73%; viability, T/C [27]: 41.1%; viability, T/C [28]: 13.5%; viability, T/C [29]: 8.01%; viability, T/C [30]: 7.22%
< 0.0316	< 0.0316	< 0.0316	< 0.0316	< 0.0316	COc1cccc2c1C(=O)c1c(O)c3c(c(O)c1C2=O)CC(O)(C(=O)CO)CC3OC1CC(N)C(O)C(C)O1 (stereo not given) + Cc1ccccc1N=Nc1ccc(NC(=O)c2ccnn2C)c(C)c1	15.3	14.2	2.62	0.35	16	14.5	3.8	0.52	16	12.7	2.55	15.9	13.5	13.2	10.1	viability, T/C [5]: 1.6%; viability, T/C [6]: 1.27%; viability, T/C [11]: 1.44%; viability, T/C [12]: 1.34%; viability, T/C [16]: 0.36%; viability, T/C [17]: 1.75%; viability, T/C [18]: 1.27%; viability, T/C [21]: 2.36%; viability, T/C [22]: 0.36%; viability, T/C [23]: 1.22%; viability, T/C [24]: 0.78%; viability, T/C [27]: 1.82%; viability, T/C [28]: 0.82%; viability, T/C [29]: 1.07%; viability, T/C [30]: 1.04%
0.949	0.816	0.84	0.93	> 1	Nc1ncn(C2CC(O)C(CO)O2)c(=O)n1 (stereo not given) + Cc1ccccc1N=Nc1ccc(NC(=O)c2ccnn2C)c(C)c1	112	106	74.2	48.9	122	111	78.3	43.9	122	106	80	112	95.5	62.8	67	viability, T/C [31]: 114%; viability, T/C [32]: 128%; viability, T/C [33]: 109%; viability, T/C [34]: 114%; viability, T/C [35]: 111%; viability, T/C [36]: 108%; viability, T/C [16]: 44.7%; viability, T/C [37]: 88.8%; viability, T/C [38]: 79.2%; viability, T/C [21]: 77.3%; viability, T/C [22]: 48.1%; viability, T/C [39]: 50.6%; viability, T/C [40]: 58.4%; viability, T/C [27]: 60.1%; viability, T/C [28]: 48.3%

From PubChem BioAssay AID1919006 (Molecular Pharmacology Branch, DTP, NCI, 2023)
